Test results: EP4385984A1, “PYRIDINE-N-OXIDES AS INHIBITORS OF NAV1.8” (Grünenthal GmbH, priority 2022, dated 2024)

Biological target: T1, human NaV1.8 (Homo sapiens, UniProt Q9Y5Y9)
T1 construct: expressed in transfected cells; host or cells: HEK
Assay: Electrophysiology: automated whole-cell voltage-clamp (patch clamp) recordings of sodium currents, Qube384
Format: cell-based
Settings: HEK-NaV1.8 (NM 006514.1) with b3 recombinant cell line, multi hole plates, ambient room temperature, read-out: Potency category (human NaV1.8 IC50)
Description: The following NaV1.8 recombinant cell line was used for recordings: HEK-NaV1.8 (NM 006514.1) with b3 (NM_018400.3).
Sodium currents were measured using the patch clamp technique in the whole-cell configuration using the Qube384 (Sophion A/S, Copenhagen, Denmark) automated voltage clamp platform. "Multi hole" plates were used for the cell line expressing NaV1.8 while "single hole" plates were used for the recombinant cell lines expressing the other subtypes. Appropriate filters (for minimum seal resistance and minimum current size) and series resistance compensation (for high quality sodium channel recordings) were applied. Data was collected at ambient room temperature.
The recording […] solution contained (in mM): NaCl 145 mM, KCl 4 mM, CaCl2 2 mM, MgCh 1 mM, HEPES 10 mM, Glucose 10 mM, pH 7.4 (NaOH). The […] recording solution contained (in mM): CsF 120 mM, CsCl 20 mM, NaCl 10 mM, EGTA 10 mM, HEPES 10 mM, pH 7.2 (CsOH). Currents were recorded at 25 kHz sampling frequency and filtered at 5 kHz. Series resistance compensation was applied at 65%. Vehicle (VEH) is the control condition where cells are exposed to 0.3 % DMSO without compound. All runs include VEH controls being exposed to the same voltage protocols to assess non-compound related phenomena such as run down and then used to isolate compound dependent effects on currents.
To check for state-dependence inhibition, the following voltage-sequence was applied every 20 seconds: From a resting membrane potential of-120 mV, the first test pulse (P1; 20 ms to -10 mV) was applied to check for channels in the Resting State followed by a brief recovery (20 ms to -120 mV), then holding the membrane voltage to V1/2 (4 seconds at voltage to obtain half the channel at Rest and half Inactivated) with a subsequent second test pulse (P2; 20 ms to -10 mV) to check for channels in the Inactivated State, followed by another brief recovery (20 ms to -120 mV) and a final third test pulse (P3; 20 ms to -10 mV) to check for recovered channels.
To check for frequency-dependent inhibition, a 10 Hz protocol and a 20 Hz protocol were applied; namely,
From a resting membrane potential of -120 mV, 40-pulses (10 ms to -10 mV) was applied at 10 Hz (at 100 ms between pulses) and then at 20 Hz (at 50 ms between pulses).
Each parameter was recorded (P1, P2, P3, P40 from 10Hz and P40 from 20Hz) during a control period (lasting ~ 5 minutes) when establishing the baseline and during compound period (lasting ~ 12 minutes) when test compound (or vehicle) was applied. For each parameter, the value at the end of the compound period was normalized to the vehicle baseline; as follows Normalized Inhibition(NormCPD) = (CPD Valueend CPD period)/(VEH Valueend Control Period) [formula]
To adjust for any variance in the Na^+ current signal during the compound period (owing to cumulative inactivation independent of compound or shifts in biophysics over time), a dedicated segment of the recording wells in each 384 plate were dedicated to having only vehicle exposure. These vehicle-only recordings were used to correct for any apparent "run-up" or "run-down" in the experiment. Normalized Inhibition(NormVEH) = (VEH Valueend CPD period)/(VEH Valueend Control Period) [formula]
The adjusted inhibition was calculated as follows: % Inhibitioncorrected = 100 × (NormCPD −NormVEH)/(100−NormVEH) [formula]
Percent inhibition was determined and IC50 values were calculated using a 4 parameter logistic model within XLFit Software (IDBS, Boston MA): %Inhibitioncorrected = A + ((B−A))/((1 + (((x)/(C)))^D) [formula] where A and B are the maximal and minimum inhibition respectively, C is the IC50 concentration and D is the (Hill) slope.

T1 sequence (Q9Y5Y9 whole entry): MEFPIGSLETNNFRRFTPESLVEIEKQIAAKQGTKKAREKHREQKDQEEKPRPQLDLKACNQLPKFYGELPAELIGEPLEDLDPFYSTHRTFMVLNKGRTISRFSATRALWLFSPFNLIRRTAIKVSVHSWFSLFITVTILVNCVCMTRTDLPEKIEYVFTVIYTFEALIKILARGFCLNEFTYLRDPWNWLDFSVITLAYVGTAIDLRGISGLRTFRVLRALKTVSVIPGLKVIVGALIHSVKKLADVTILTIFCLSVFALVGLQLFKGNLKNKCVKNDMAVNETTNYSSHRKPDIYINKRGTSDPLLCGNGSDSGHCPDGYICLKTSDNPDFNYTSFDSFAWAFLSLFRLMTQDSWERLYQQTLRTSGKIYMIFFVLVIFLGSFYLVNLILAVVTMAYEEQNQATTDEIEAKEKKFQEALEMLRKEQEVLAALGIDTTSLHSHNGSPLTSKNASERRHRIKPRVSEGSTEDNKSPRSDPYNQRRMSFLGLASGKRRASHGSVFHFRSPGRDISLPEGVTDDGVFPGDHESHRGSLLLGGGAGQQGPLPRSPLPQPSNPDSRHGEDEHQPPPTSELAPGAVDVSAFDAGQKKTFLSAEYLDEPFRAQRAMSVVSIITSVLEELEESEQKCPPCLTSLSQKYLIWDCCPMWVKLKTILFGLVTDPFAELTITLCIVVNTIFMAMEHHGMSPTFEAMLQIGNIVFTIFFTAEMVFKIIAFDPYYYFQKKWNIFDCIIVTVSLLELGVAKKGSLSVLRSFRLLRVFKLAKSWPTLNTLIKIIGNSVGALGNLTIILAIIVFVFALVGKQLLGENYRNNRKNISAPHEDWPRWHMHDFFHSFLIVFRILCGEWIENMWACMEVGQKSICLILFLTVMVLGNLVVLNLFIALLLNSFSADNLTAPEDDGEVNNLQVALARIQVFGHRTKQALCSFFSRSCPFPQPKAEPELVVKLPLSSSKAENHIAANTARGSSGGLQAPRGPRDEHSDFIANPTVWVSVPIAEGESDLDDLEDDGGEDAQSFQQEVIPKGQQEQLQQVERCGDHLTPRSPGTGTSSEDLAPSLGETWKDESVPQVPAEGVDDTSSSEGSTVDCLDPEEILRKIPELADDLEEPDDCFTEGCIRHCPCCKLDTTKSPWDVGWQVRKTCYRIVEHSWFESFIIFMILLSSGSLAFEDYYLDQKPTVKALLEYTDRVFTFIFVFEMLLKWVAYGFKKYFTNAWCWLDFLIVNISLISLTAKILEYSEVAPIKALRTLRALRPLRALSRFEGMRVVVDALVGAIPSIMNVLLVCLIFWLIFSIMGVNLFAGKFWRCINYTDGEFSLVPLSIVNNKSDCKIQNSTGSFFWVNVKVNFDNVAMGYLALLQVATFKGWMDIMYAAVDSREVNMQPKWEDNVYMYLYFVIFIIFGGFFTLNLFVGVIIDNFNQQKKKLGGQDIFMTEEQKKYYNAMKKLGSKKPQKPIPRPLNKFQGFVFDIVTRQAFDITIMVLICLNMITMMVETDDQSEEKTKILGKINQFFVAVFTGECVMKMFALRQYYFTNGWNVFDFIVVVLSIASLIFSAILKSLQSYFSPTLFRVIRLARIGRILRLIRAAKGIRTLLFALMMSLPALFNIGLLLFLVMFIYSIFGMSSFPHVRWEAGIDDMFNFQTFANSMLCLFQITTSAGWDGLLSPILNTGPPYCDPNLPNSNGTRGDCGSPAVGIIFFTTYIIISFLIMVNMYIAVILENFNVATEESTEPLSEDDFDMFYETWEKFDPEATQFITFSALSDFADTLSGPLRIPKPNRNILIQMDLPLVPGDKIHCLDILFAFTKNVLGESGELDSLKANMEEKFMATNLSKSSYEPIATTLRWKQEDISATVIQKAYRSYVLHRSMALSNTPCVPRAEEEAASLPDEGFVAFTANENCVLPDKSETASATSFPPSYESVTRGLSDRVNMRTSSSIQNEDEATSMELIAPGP

| Compound | IC50 [nM] |
| --- | --- |
| Cc1c(C(C)(F)F)nn(CC2(C)CCC(F)(F)C2)c1C(=O)Nc1cc[n+]([O-])c(C(N)=O)c1 (single isomer, unassigned) [Example 5a, 2-carbamoyl-4-(1-((3,3-difluoro-1-methylcyclopentyl)methyl)-3-(1,1-difluoroethyl)-4-methyl-1H-pyrazole-5-carboxamido)pyridine 1-oxide] | ≤ 100 |
| Cc1c(C(C)(F)F)nn(C[C@@H]2CCC(F)(F)C2)c1C(=O)Nc1cc[n+]([O-])c(C(N)=O)c1 [Example 1a, (R)-2-Carbamoyl-4-(1-((3,3-difluorocyclopentyl)methyl)-3-(1,1-difluoroethyl)-4-methyl-1H-pyrazole-5-carboxamido)pyridine 1-oxide] | 100 to 1000 |
| Cc1c(C(C)(F)F)nn(C[C@H]2CCC(F)(F)C2)c1C(=O)Nc1cc[n+]([O-])c(C(N)=O)c1 [Example 1b, (S)-2-Carbamoyl-4-(1-((3,3-difluorocyclopentyl)methyl)-3-(1,1-difluoroethyl)-4-methyl-1H-pyrazole-5-carboxamido)pyridine 1-oxide] | 100 to 1000 |
| Cc1c(C(C)(F)F)nn(CC2CC(F)(F)C2)c1C(=O)Nc1cc[n+]([O-])c(C(N)=O)c1 [Example 3, 2-carbamoyl-4-(1-((3,3-difluorocyclobutyl)methyl)-3-(1,1-difluoroethyl)-4-methyl-1H-pyrazole-5-carboxamido)pyridine 1-oxide] | 100 to 1000 |
| Cc1c(C(C)(F)F)nn(CC2(C)CC(F)(F)C2)c1C(=O)Nc1cc[n+]([O-])c(C(N)=O)c1 [Example 4, 2-carbamoyl-4-(1-((3,3-difluoro-1-methylcyclobutyl)methyl)-3-(1,1-difluoroethyl)-4-methyl-1H-pyrazole-5-carboxamido)pyridine 1-oxide] | ≤ 100 |
| CC(F)(F)c1nn(CC2CC(F)(F)C2)c(C(=O)Nc2ccnc(C(=O)O)c2)c1C(F)(F)F [Example 7, 4-(1-((3,3-difluorocyclobutyl)methyl)-3-(1,1-difluoroethyl)-4-(trifluoromethyl)-1H-pyrazole-5-carboxamido)picolinic acid] | 1000 to 10000 |
| CC(F)(F)c1nn(CC2CC(F)(F)C2)c(C(=O)Nc2ccc(C(=O)O)nc2)c1C(F)(F)F [Example 8, 5-(1-((3,3-difluorocyclobutyl)methyl)-3-(1,1-difluoroethyl)-4-(trifluoromethyl)-1H-pyrazole-5-carboxamido)picolinic acid] | 100 to 1000 |
| O=C(O)c1cc(NC(=O)c2c(C(F)(F)F)c(C3CC3)nn2CC2CCC(F)(F)CC2)ccn1 [Example 9, 4-(3-cyclopropyl-1-((4,4-difluorocyclohexyl)methyl)-4-(trifluoromethyl)-1H-pyrazole-5-carboxamido)picolinic acid] | 100 to 1000 |
| CP(C)(=O)c1cc(NC(=O)c2c(C(F)(F)F)cnn2CC2CCCCC2)ccn1 [Example 10, 1-(cyclohexylmethyl)-N-(2-(dimethylphosphoryl)pyridin-4-yl)-4-(trifluoromethyl)-1H-pyrazole-5-carboxamide] | 100 to 1000 |
